Test results from PMC10221175.
Values belong to the molecule of their own block, whether it stands above or below them.

Tests used:
[1] = test system: 5′-FAM-AT11-L0-TAMRA-3′ (DNA, G4) TGGTGGTGGTTGTTGGGTGGTGGTGGT; assay: FRET melting; settings: 65 mM KCl, 20 mM potassium phosphate, pH 6.9, 0.2 µM DNA
[2] = test system: 5′-Cy5-AT11-L0 (DNA, G4) TGGTGGTGGTTGTTGGGTGGTGGTGGT; assay: fluorescence titration (Cy5 quenching), two-site model; settings: 65 mM KCl, 20 mM potassium phosphate; pH 6.9; 1 µM DNA; site 1 of 2; apparent
[3] = test system: 5′-Cy5-AT11-L0 (DNA, G4) TGGTGGTGGTTGTTGGGTGGTGGTGGT; assay: fluorescence titration (Cy5 quenching), Hill model; settings: 65 mM KCl, 20 mM potassium phosphate; pH 6.9; 1 µM DNA; apparent
[4] = molecular target: T1, nucleolin RBD1,2 (NCL RBD1,2) (UniProt P19338 307-466); assay: fluorescence titration (Cy5 quenching); ligand PhenDC3; two-site model, KD1; aptamer pre-annealed in 20 mM potassium phosphate pH 6.9, 65 mM KCl (95 C 10 min, ice 10 min); titration temperature not given in the material; settings: protein: recombinant; label: 5'-Cy5; parallel G4, pre-folded in K+
T1 sequence (P19338 307-466): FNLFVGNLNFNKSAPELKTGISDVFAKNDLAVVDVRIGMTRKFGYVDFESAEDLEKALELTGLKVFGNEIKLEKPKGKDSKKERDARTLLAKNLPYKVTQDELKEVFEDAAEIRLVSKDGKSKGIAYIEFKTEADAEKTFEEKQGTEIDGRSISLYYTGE

[5] = molecular target: T1, nucleolin RBD1,2 (NCL RBD1,2); assay: fluorescence titration (Cy5 quenching); no ligand; two-site model, KD1; aptamer pre-annealed in 20 mM potassium phosphate pH 6.9, 65 mM KCl (95 C 10 min, ice 10 min); titration temperature not given in the material; settings: protein: recombinant; label: 5'-Cy5; parallel G4, pre-folded in K+
[6] = molecular target: T1, nucleolin RBD1,2 (NCL RBD1,2); assay: fluorescence titration (Cy5 quenching); ligand C8; two-site model, KD1; aptamer pre-annealed in 20 mM potassium phosphate pH 6.9, 65 mM KCl (95 C 10 min, ice 10 min); titration temperature not given in the material; settings: protein: recombinant; label: 5'-Cy5; parallel G4, pre-folded in K+

Molecule: C[C@@H]1C[C@H]2[C@@H]3CCC4=CC(=O)C=C[C@]4(C)[C@@]3(F)[C@@H](O)C[C@]2(C)[C@@]1(O)C(=O)CO
ΔTm ([1]; 0.2 µM compound (1 eq)): 0.1 °C

Molecule: C[n+]1ccc(-c2c3nc(c(-c4cc[n+](C)cc4)c4ccc([nH]4)c(-c4cc[n+](C)cc4)c4nc(c(-c5cc[n+](C)cc5)c5ccc2[nH]5)C=C4)C=C3)cc1
ΔTm ([1]; 1 µM compound (5 eq)): 28 °C

Molecule: TGGTGGTGGTTGTTGGGTGGTGGTGGT (structured_DNA) [5'-Cy5-AT11-L0]
Kd [4]: 0.02 nM
Kd [5]: 0.012 nM
Kd [6]: 0.024 nM

Second part, the molecule after the results:

ΔTm ([1]; 1 µM compound (5 eq)): 20.3 °C
Molecule: CN(C)c1ccc(Nc2c3ccc(NC(=O)CCN4CCCC4)cc3nc3cc(NC(=O)CCN4CCCC4)ccc23)cc1

ΔTm ([1]; 1 µM compound (5 eq)): 26.9 °C
Molecule: NCCOc1cc(C(=O)Nc2cc(OCCN)c3ccccc3n2)nc(C(=O)Nc2cc(OCCN)c3ccccc3n2)c1

KD1 [2]: 329 pM
ΔTm ([1]; 1 µM compound (5 eq)): > 30 °C
Molecule: C[n+]1cc(NC(=O)c2ccc3ccc4ccc(C(=O)Nc5cc6ccccc6[n+](C)c5)nc4c3n2)cc2ccccc21

KD [3]: 22.1 nM
ΔTm ([1]; 1 µM compound (5 eq)): 19.6 °C
Molecule: CN(C)c1ccc2cc3ccc(N(C)C)cc3[n+](CCCCCCCCNC(=O)c3ccc(I)cc3)c2c1
